From patent publication US20200048267A1, “OGA INHIBITOR COMPOUNDS” (Janssen Pharmaceutica NV, priority 2017, published 2020)

Target: T1, recombinant human Meningioma Expressed Antigen 5 (MGEA5), also referred to as O-GlcNAcase (OGA) (Homo sapiens, UniProt O60502)
T1 construct: Full length OGA enzyme was purchased at OriGene (cat # TP322411); purchased OriGene TP322411
T1 sequence (O60502 1-916): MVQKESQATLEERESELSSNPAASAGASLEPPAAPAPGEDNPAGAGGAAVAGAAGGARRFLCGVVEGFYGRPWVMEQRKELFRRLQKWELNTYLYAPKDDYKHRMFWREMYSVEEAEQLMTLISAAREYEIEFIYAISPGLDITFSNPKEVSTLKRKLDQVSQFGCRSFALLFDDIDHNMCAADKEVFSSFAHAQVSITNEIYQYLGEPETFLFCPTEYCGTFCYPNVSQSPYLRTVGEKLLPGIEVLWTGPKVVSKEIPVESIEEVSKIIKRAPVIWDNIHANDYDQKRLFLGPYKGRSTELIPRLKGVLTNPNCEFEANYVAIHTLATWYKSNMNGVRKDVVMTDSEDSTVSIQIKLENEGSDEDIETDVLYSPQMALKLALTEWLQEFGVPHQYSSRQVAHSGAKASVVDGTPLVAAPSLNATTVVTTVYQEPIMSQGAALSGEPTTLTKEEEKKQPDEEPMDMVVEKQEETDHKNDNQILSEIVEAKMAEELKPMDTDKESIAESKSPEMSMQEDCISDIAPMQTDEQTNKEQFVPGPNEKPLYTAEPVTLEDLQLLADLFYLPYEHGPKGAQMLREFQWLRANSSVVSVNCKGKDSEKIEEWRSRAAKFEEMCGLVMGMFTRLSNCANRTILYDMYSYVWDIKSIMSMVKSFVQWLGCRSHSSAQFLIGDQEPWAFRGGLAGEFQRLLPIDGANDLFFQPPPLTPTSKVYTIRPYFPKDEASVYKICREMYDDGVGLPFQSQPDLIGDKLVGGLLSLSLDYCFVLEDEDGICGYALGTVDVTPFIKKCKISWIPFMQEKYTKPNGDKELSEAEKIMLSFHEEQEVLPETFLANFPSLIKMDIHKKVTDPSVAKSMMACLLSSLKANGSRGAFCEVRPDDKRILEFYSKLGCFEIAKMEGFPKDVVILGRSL
Test: OGA biochemical assay (inhibition of FM-GlcNAc hydrolysis, fluorescence)
Settings: for Emax: read-out: ENZYMATIC Emax (%); for IC50: read-out: ENZYMATIC hOGA, pIC50 (converted)
Source text: The assay is based on the inhibition of the hydrolysis of fluorescein mono-β-D-N-Acetyl-Glucosamine (FM-GlcNAc) (Mariappa et al. 2015, Biochem J 470:255) by the recombinant human Meningioma Expressed Antigen 5 (MGEA5), also referred to as O-GlcNAcase (OGA). The hydrolysis FM-GlcNAc (Marker Gene technologies, cat # M1485) results in the formation of B-D-N-glucosamineacetate and fluorescein. The fluorescence of the latter can be measured at excitation wavelength 485 nm and emission wavelength 538 nm. An increase in enzyme activity results in an increase in fluorescence signal. Full length OGA enzyme was purchased at OriGene (cat # TP322411). The enzyme was stored in 25 mM Tris.HCl, pH 7.3, 100 mM glycine, 10% glycerol at −20° C. Thiamet G and GlcNAcStatin were tested as reference compounds (Yuzwa et al. 2008 Nature Chemical Biology 4:483; Yuzwa et al. 2012 Nature Chemical Biology 8:393). The assay was performed in 200 mM Citrate/phosphate buffer supplemented with 0.005% Tween-20. 35.6 g Na2HPO4 2 H2O (Sigma, # C0759) were dissolved in 1 L water to obtain a 200 mM solution. 19.2 g citric acid (Merck, # 1.06580) was dissolved in 1 L water to obtain a 100 mM solution. pH of the sodium phosphate solution was adjusted with the citric acid solution to 7.2. The buffer to stop the reaction consists of a 500 mM Carbonate buffer, pH 11.0. 734 mg FM-GlcNAc were dissolved in 5.48 mL DMSO to obtain a 250 mM solution and was stored at −20° C. OGA was used at 2 nM concentration and FM-GlcNAc at a 100 uM final concentration. Dilutions were prepared in assay buffer.
50 nl of a compound dissolved in DMSO was dispensed on Black Proxiplate™ 384 Plus Assay plates (Perkin Elmer, #6008269) and 3 μl fl-OGA enzyme mix added subsequently. Plates were pre-incubated for 60 min at room temperature and then 2 μl FM-GlcNAc substrate mix added. […] Plates were briefly centrifuged for 1 min at 1000rpm and incubate at room temperature for 6 h. To stop the reaction 5 μl STOP buffer were added and plates centrifuge again 1 min at 1000 rpm.
Fluorescence was quantified in the Thermo Scientific Fluoroskan Ascent or the PerkinElmer EnVision with excitation wavelength 485 nm and emission wavelength 538 nm.
For analysis a best-fit curve is fitted by a minimum sum of squares method. From this an IC50 value and Hill coefficient was obtained. High control (no inhibitor) and low control (saturating concentrations of standard inhibitor) were used to define the minimum and maximum values.

Structure (SMILES) | Emax [%] | IC50 [nM] | ENZYMATIC Emax (%)
CC(=O)Nc1ncc(CN2CCC3(CCN(c4cncnc4)C3)C2)s1 (stereo not shown) [Product 43] | 99.8 | 53.7 | 
CC(=O)Nc1ncc(CN2CCC3(CCN(c4cnc(C)nc4)C3)C2)s1 (stereo not shown) [Product 45] | 99.2 | 61.7 | 
CC(=O)Nc1ncc(CN2CCC3(CCN(c4nnc(C)cc4C)C3)C2)s1 (stereo not shown) [Product 55] | 99 | 45.7 | 
CC(=O)Nc1ncc(CN2CCC3(CCN(c4cnccn4)C3)C2)s1 (stereo not shown) [Product 11] | 99.1 | 81.3 | 
CC(=O)Nc1ncc(CN2CCC3(CCN(c4nc(C)ncc4C)C3)C2)s1 (stereo not shown) [Product 54] | 101 | 28.2 | 
COc1nc(C)ccc1N1CCC2(CCN(Cc3cnc(NC(C)=O)s3)C2)C1 (stereo not shown) [Product 53] | 97.1 | 309 | 
CC(=O)Nc1ncc(CN2CCC3(CCN(c4cc(C)nc(C)c4)C3)C2)s1 (single isomer, unassigned) [Product 2] | 101 | 10.2 | 
CC(=O)Nc1ncc(CN2CCC3(CCN(c4cc(F)ncc4C)C3)C2)s1 (stereo not shown) [Product 56] | 100 | 51.3 | 
Cc1cc(N2CCC3(CCN(C(C)c4ccc5nccnc5c4)C3)C2)cc(C)n1 (stereo not shown) [Product 6] | 97.8 | 97.7 | 
Cc1cc(N2CCC3(CCN(C(C)c4ccc5c(c4)OCO5)C3)C2)nc(C)n1 (stereo not shown) [Product 10] | 99.8 | 135 | 
c1cnc2cc(CN3CCC4(CCN(c5cncc(C6CC6)n5)C4)C3)ccc2n1 (stereo not shown) [Product 14] | 94.2 | 724 | 
CC(=O)Nc1ncc(CN2CCC3(CCN(c4ncc(F)cc4F)C3)C2)s1 (stereo not shown) [Product 46] | 99 | 112 | 
CC(=O)Nc1ncc(CN2CCC3(CCN(Cc4cc(C)nc(C)c4)C3)C2)s1 (stereo not shown) [Product 17] | 90.6 | 562 | 
CC(=O)Nc1ncc(CN2CCC3(CCN(c4ccc(C)nc4)C3)C2)s1 (stereo not shown) [Product 44] | 102 | 33.9 | 
Cc1cc(N2CCC3(CCN(Cc4ccc5nccnc5c4)C3)C2)cc(C)n1 (single isomer, unassigned) [Product 5] |  | 219 | 98.6
CC(=O)Nc1ncc(CN2CCC3(CCN(Cc4ccc(C(F)(F)F)cn4)C3)C2)s1 (stereo not shown) [Product 35] | 84.4 | 2000 | 
CC(=O)Nc1ncc(CN2CCC3(CCN(c4cncc(C)n4)C3)C2)s1 (stereo not shown) [Product 12] | 101 | 34.7 | 
Cc1cc(N2CCC3(CCN(C(C)c4ccc5c(c4)OCO5)C3)C2)cc(C)n1 (stereo not shown) [Product 8] | 96.6 | 100 | 
CC(c1ccc2nccnc2c1)N1CCC2(CCN(c3cncc(C4CC4)n3)C2)C1 (stereo not shown) [Product 15] | 93.4 | 229 | 
CC(=O)Nc1ncc(CN2CCC3(CCN(c4nc(C)cnc4C)C3)C2)s1 (stereo not shown) [Product 40] | 98.4 | 66.1 | 
